Source: patent US10294202B2, “Pyrrolidinones as herbicides” (FMC Corporation, priority 2013, dated 2019)

Experiments:
barnyardgrass [1] = assay: Test A pre-/postemergence herbicide test; type: in vivo, Echinochloa crus-galli; conditions: for Plant response rating, Barnyardgrass: 0 to 100 scale
Outline: (§1)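 Formulated compound (non-phytotoxic solvent, surfactant) sprayed pre- onto soil of seeded loam/sand pots or post- onto seedlings at 1–2 leaves; ~10 d greenhouse; 0–100 visual control rating versus untreated.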

kochia = assay: Test A pre-/postemergence herbicide test; type: in vivo, Kochia scoparia; conditions: for Plant response rating, Kochia: 0 to 100 scale
Outline: as §1

ragweed = assay: Test A pre-/postemergence herbicide test; type: in vivo, Ambrosia elatior; conditions: for Plant response rating, Ragweed: 0 to 100 scale
Outline: as §1

ryegrass, Italian = assay: Test A pre-/postemergence herbicide test; type: in vivo, Lolium multiflorum; conditions: for Plant response rating, Ryegrass, Italian: 0 to 100 scale
Outline: as §1

giant foxtail = assay: Test A pre-/postemergence herbicide test; type: in vivo, Setaria faberii; conditions: for Plant response rating, Foxtail, Giant: 0 to 100 scale
Outline: as §1

pigweed = assay: Test A pre-/postemergence herbicide test; type: in vivo, Amaranthus retroflexus; conditions: for Plant response rating, Pigweed: 0 to 100 scale
Outline: as §1

wheat = assay: Test A pre-/postemergence herbicide test; type: in vivo, Triticum aestivum; conditions: Postemergence; for Plant response rating, Wheat: 125 g ai/ha, 0 to 100 scale, 0 is no effect, 100 is complete control; for Wheat plant response rating (0 to 100 scale, 0 is no effect, 100 is complete control): 500 g ai/ha
Outline: as §1

corn = assay: Test A pre-/postemergence herbicide test; type: in vivo, Zea mays; conditions: Postemergence; for Plant response rating, Corn: 125 g ai/ha, 0 to 100 scale, 0 is no effect, 100 is complete control; for Corn plant response rating (0 to 100 scale, 0 is no effect, 100 is complete control): 500 g ai/ha
Outline: as §1

blackgrass = assay: Test A postemergence herbicide test; type: in vivo, Alopecurus myosuroides; conditions: for Plant response rating, Blackgrass: 125 g ai/ha, 0 to 100 scale, 0 is no effect, 100 is complete control; for Blackgrass plant response rating (0 to 100 scale, 0 is no effect, 100 is complete control): 500 g ai/ha
Outline: (§2)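 Visual injury rating, 0 (no effect) to 100 (complete control), versus untreated controls ~10 days after treatment. Postemergence spray applied at one- to two-leaf stage, plants 2–10 cm tall, potted in loam soil/sand. Greenhouse-held.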

galium = assay: Test A postemergence herbicide test; type: in vivo, Galium aparine; conditions: for Plant response rating, Galium: 125 g ai/ha, 0 to 100 scale, 0 is no effect, 100 is complete control; for Galium plant response rating (0 to 100 scale, 0 is no effect, 100 is complete control): 500 g ai/ha
Outline: as §2

rice = assay: Test B flooded paddy test; type: in vivo, Oryza sativa; conditions: 500 g ai/ha, Flood; scale of 0 to 100 where 0 is no effect and 100 is complete control
Outline: (§3)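 Scored visually 0–100 (0 no effect, 100 complete control) versus controls after 13 to 15 greenhouse days. Treatment: compound added to paddy water kept 3 cm above soil, on 2-leaf-stage plants.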

sedge, umbrella = assay: Test B flooded paddy test; type: in vivo, Cyperus difformis; conditions: 500 g ai/ha, Flood; scale of 0 to 100 where 0 is no effect and 100 is complete control
Outline: as §3

ducksalad = assay: Test B flooded paddy test; type: in vivo, Heteranthera limosa; conditions: 500 g ai/ha, Flood; scale of 0 to 100 where 0 is no effect and 100 is complete control
Outline: as §3

barnyardgrass [2] = assay: Test B flooded paddy test; type: in vivo, Echinochloa crus-galli; conditions: 500 g ai/ha, Flood; scale of 0 to 100 where 0 is no effect and 100 is complete control
Outline: as §3

[3] = 125 g ai/ha, visual rating, 0 no effect, 100 complete control, approximately 10 days, preemergence
[4] = Postemergence, 125 g ai/ha, 0 is no effect, 100 is complete control
[5] = preemergence, 500 g ai/ha, 0 is no effect and 100 is complete control

With `O=C1NCC(c2cccc3ccccc23)C1C(=O)Nc1ccccc1F` (stereo not drawn) [Compound 216] the “Plant response rating, Barnyardgrass” value (barnyardgrass [1]; [3]) was 20, the “Plant response rating, Barnyardgrass” value (barnyardgrass [1]; [4]) was 0 and the “Barnyardgrass plant response rating (0 to 100 scale, 0 is no effect, 100 is complete control)” value (barnyardgrass [1]; Postemergence, 500 g ai/ha) was 0. The “Plant response rating, Barnyardgrass” value (barnyardgrass [1]; [5]) was 60, the “Plant response rating, Kochia” value (kochia; [3]) was 0 and the “Plant response rating, Kochia” value (kochia; [4]) was 0. The “Kochia plant response rating (0 to 100 scale, 0 is no effect, 100 is complete control)” value (kochia; Postemergence, 500 g ai/ha) was 0, the “Plant response rating, Kochia” value (kochia; [5]) was 0 and the “Plant response rating, Ragweed” value (ragweed; [3]) was 0. For the same compound, the “Plant response rating, Ragweed” value (ragweed; [4]) was 0, the “Ragweed plant response rating (0 to 100 scale, 0 is no effect, 100 is complete control)” value (ragweed; Postemergence, 500 g ai/ha) was 0 and the “Plant response rating, Ragweed” value (ragweed; [5]) was 0. For the same compound, the “Plant response rating, Ryegrass, Italian” value (ryegrass, Italian; [3]) was 0, the “Plant response rating, Ryegrass, Italian” value (ryegrass, Italian; [4]) was 0 and the “Ryegrass, Italian plant response rating (0 to 100 scale, 0 is no effect, 100 is complete control)” value (ryegrass, Italian; Postemergence, 500 g ai/ha) was 0. For the same compound, the “Plant response rating, Ryegrass, Italian” value (ryegrass, Italian; [5]) was 0, the “Plant response rating, Foxtail, Giant” value (giant foxtail; [3]) was 40 and the “Plant response rating, Foxtail, Giant” value (giant foxtail; [4]) was 0. The “Foxtail, Giant plant response rating (0 to 100 scale, 0 is no effect, 100 is complete control)” value (giant foxtail; Postemergence, 500 g ai/ha) was 10, the “Plant response rating, Foxtail, Giant” value (giant foxtail; [5]) was 50 and the “Plant response rating, Pigweed” value (pigweed; [3]) was 0. The “Plant response rating, Pigweed” value (pigweed; [4]) was 0, the “Pigweed plant response rating (0 to 100 scale, 0 is no effect, 100 is complete control)” value (pigweed; Postemergence, 500 g ai/ha) was 0 and the “Plant response rating, Pigweed” value (pigweed; [5]) was 0. For the same compound, the “Plant response rating, Wheat” value (wheat) was 0, the “Wheat plant response rating (0 to 100 scale, 0 is no effect, 100 is complete control)” value (wheat) was 0 and the “Plant response rating, Corn” value (corn) was 0. The “Corn plant response rating (0 to 100 scale, 0 is no effect, 100 is complete control)” value (corn) was 0, the “Plant response rating, Blackgrass” value (blackgrass) was 0 and the “Blackgrass plant response rating (0 to 100 scale, 0 is no effect, 100 is complete control)” value (blackgrass) was 0. The “Plant response rating, Galium” value (galium) was 0, the “Galium plant response rating (0 to 100 scale, 0 is no effect, 100 is complete control)” value (galium) was 0 and the “Plant response rating, Rice” value (rice) was 0. The “Plant response rating, Sedge, Umbrella” value (sedge, umbrella) was 0, the “Plant response rating, Ducksalad” value (ducksalad) was 0 and the “Plant response rating, Barnyardgrass” value (barnyardgrass [2]) was 0.

For `Cc1ccccc1NC(=O)C1C(=O)NCC1c1ccc(OC(F)F)cc1` (stereo not drawn) [Compound 227], the “Plant response rating, Barnyardgrass” value (barnyardgrass [1]; [3]) was 20, the “Plant response rating, Barnyardgrass” value (barnyardgrass [1]; [4]) was 20 and the “Barnyardgrass plant response rating (0 to 100 scale, 0 is no effect, 100 is complete control)” value (barnyardgrass [1]; Postemergence, 500 g ai/ha) was 80. For the same compound, the “Plant response rating, Barnyardgrass” value (barnyardgrass [1]; [5]) was 50, the “Plant response rating, Kochia” value (kochia; [3]) was 20 and the “Plant response rating, Kochia” value (kochia; [4]) was 0. For the same compound, the “Kochia plant response rating (0 to 100 scale, 0 is no effect, 100 is complete control)” value (kochia; Postemergence, 500 g ai/ha) was 40, the “Plant response rating, Kochia” value (kochia; [5]) was 20 and the “Plant response rating, Ragweed” value (ragweed; [3]) was 0. The “Plant response rating, Ragweed” value (ragweed; [4]) was 0, the “Ragweed plant response rating (0 to 100 scale, 0 is no effect, 100 is complete control)” value (ragweed; Postemergence, 500 g ai/ha) was 0 and the “Plant response rating, Ragweed” value (ragweed; [5]) was 0. The “Plant response rating, Ryegrass, Italian” value (ryegrass, Italian; [3]) was 0, the “Plant response rating, Ryegrass, Italian” value (ryegrass, Italian; [4]) was 0 and the “Ryegrass, Italian plant response rating (0 to 100 scale, 0 is no effect, 100 is complete control)” value (ryegrass, Italian; Postemergence, 500 g ai/ha) was 20. For the same compound, the “Plant response rating, Ryegrass, Italian” value (ryegrass, Italian; [5]) was 30, the “Plant response rating, Foxtail, Giant” value (giant foxtail; [3]) was 80 and the “Plant response rating, Foxtail, Giant” value (giant foxtail; [4]) was 30. The “Foxtail, Giant plant response rating (0 to 100 scale, 0 is no effect, 100 is complete control)” value (giant foxtail; Postemergence, 500 g ai/ha) was 80, the “Plant response rating, Foxtail, Giant” value (giant foxtail; [5]) was 90 and the “Plant response rating, Pigweed” value (pigweed; [3]) was 0. For the same compound, the “Plant response rating, Pigweed” value (pigweed; [4]) was 0, the “Pigweed plant response rating (0 to 100 scale, 0 is no effect, 100 is complete control)” value (pigweed; Postemergence, 500 g ai/ha) was 0 and the “Plant response rating, Pigweed” value (pigweed; [5]) was 20. The “Plant response rating, Wheat” value (wheat) was 0, the “Wheat plant response rating (0 to 100 scale, 0 is no effect, 100 is complete control)” value (wheat) was 0 and the “Plant response rating, Corn” value (corn) was 0. The “Corn plant response rating (0 to 100 scale, 0 is no effect, 100 is complete control)” value (corn) was 0, the “Plant response rating, Blackgrass” value (blackgrass) was 0 and the “Blackgrass plant response rating (0 to 100 scale, 0 is no effect, 100 is complete control)” value (blackgrass) was 40. The “Plant response rating, Galium” value (galium) was 0, the “Galium plant response rating (0 to 100 scale, 0 is no effect, 100 is complete control)” value (galium) was 0 and the “Plant response rating, Rice” value (rice) was 0. For the same compound, the “Plant response rating, Sedge, Umbrella” value (sedge, umbrella) was 0, the “Plant response rating, Ducksalad” value (ducksalad) was 90 and the “Plant response rating, Barnyardgrass” value (barnyardgrass [2]) was 0.

For `O=C1NCC(c2cccc(OC(F)F)c2)C1C(=O)Nc1ccccc1Br` (stereo not drawn) [Compound 228], the “Plant response rating, Barnyardgrass” value (barnyardgrass [1]; [3]) was 50, the “Plant response rating, Barnyardgrass” value (barnyardgrass [1]; [4]) was 60 and the “Barnyardgrass plant response rating (0 to 100 scale, 0 is no effect, 100 is complete control)” value (barnyardgrass [1]; Postemergence, 500 g ai/ha) was 80. The “Plant response rating, Barnyardgrass” value (barnyardgrass [1]; [5]) was 80, the “Plant response rating, Kochia” value (kochia; [3]) was 0 and the “Plant response rating, Kochia” value (kochia; [4]) was 20. For the same compound, the “Kochia plant response rating (0 to 100 scale, 0 is no effect, 100 is complete control)” value (kochia; Postemergence, 500 g ai/ha) was 30, the “Plant response rating, Kochia” value (kochia; [5]) was 20 and the “Plant response rating, Ragweed” value (ragweed; [3]) was 0. For the same compound, the “Plant response rating, Ragweed” value (ragweed; [4]) was 0, the “Ragweed plant response rating (0 to 100 scale, 0 is no effect, 100 is complete control)” value (ragweed; Postemergence, 500 g ai/ha) was 20 and the “Plant response rating, Ragweed” value (ragweed; [5]) was 20. The “Plant response rating, Ryegrass, Italian” value (ryegrass, Italian; [3]) was 30, the “Plant response rating, Ryegrass, Italian” value (ryegrass, Italian; [4]) was 0 and the “Ryegrass, Italian plant response rating (0 to 100 scale, 0 is no effect, 100 is complete control)” value (ryegrass, Italian; Postemergence, 500 g ai/ha) was 20. The “Plant response rating, Ryegrass, Italian” value (ryegrass, Italian; [5]) was 40, the “Plant response rating, Foxtail, Giant” value (giant foxtail; [3]) was 80 and the “Plant response rating, Foxtail, Giant” value (giant foxtail; [4]) was 70. The “Foxtail, Giant plant response rating (0 to 100 scale, 0 is no effect, 100 is complete control)” value (giant foxtail; Postemergence, 500 g ai/ha) was 90, the “Plant response rating, Foxtail, Giant” value (giant foxtail; [5]) was 90 and the “Plant response rating, Pigweed” value (pigweed; [3]) was 0. The “Plant response rating, Pigweed” value (pigweed; [4]) was 0, the “Pigweed plant response rating (0 to 100 scale, 0 is no effect, 100 is complete control)” value (pigweed; Postemergence, 500 g ai/ha) was 0 and the “Plant response rating, Pigweed” value (pigweed; [5]) was 0. For the same compound, the “Plant response rating, Wheat” value (wheat) was 0, the “Wheat plant response rating (0 to 100 scale, 0 is no effect, 100 is complete control)” value (wheat) was 20 and the “Plant response rating, Corn” value (corn) was 20. For the same compound, the “Corn plant response rating (0 to 100 scale, 0 is no effect, 100 is complete control)” value (corn) was 30, the “Plant response rating, Blackgrass” value (blackgrass) was 20 and the “Blackgrass plant response rating (0 to 100 scale, 0 is no effect, 100 is complete control)” value (blackgrass) was 40. For the same compound, the “Plant response rating, Galium” value (galium) was 30, the “Galium plant response rating (0 to 100 scale, 0 is no effect, 100 is complete control)” value (galium) was 40 and the “Plant response rating, Rice” value (rice) was 0. The “Plant response rating, Sedge, Umbrella” value (sedge, umbrella) was 0, the “Plant response rating, Ducksalad” value (ducksalad) was 90 and the “Plant response rating, Barnyardgrass” value (barnyardgrass [2]) was 0.
